≈ marks a conversion by molar mass, not a printed value. Where two headings read alike, the source gives them in different places.
Assays:
[1] = system: Bacillus subtilis ATCC 6633; experiment: microbe, parasite or virus in culture; set-up: species or system bacteria; Broth microdilution MIC in Mueller-Hinton broth, absorbance at 620 nm; settings: ATCC6633, 24 h, read-out: Observed MIC, uM (B. subtilis)
From the text: (§1) Antibacterial properties of the synthesized compounds (3a–k, 5a–f, 7a–c, 9a–c, 11a–f, 13 and 15) were screened against Gram-positive (Staphylococcus aureus ATCC 6538, Bacillus subtilis ATCC 6633) and Gram-negative (Pseudomonas aeruginosa ATCC 15,692 and Escherichia coli ATCC 47076) bacteria utilizing the standard technique. Linezolid was used as a standard reference/drug in the current study. The tested bacterial strains were obtained from MERCIN Center, Faculty of Agriculture, Ain Shams University, Cairo, Egypt. To determine the antibacterial activity, stock solutions of the tested compounds and standard reference were prepared with up to 100% DMSO and stored at […]. If necessary, the solutions were heated to 40–60 °C before testing to facilitate complete dissolution. Double distilled water was used in all dilutions prepared. […] A microdilution susceptibility test was used for MIC determination (Mueller–Hinton broth in 96-well plates) according to the CLSI (the Clinical and Laboratory Standards Institute, Malvern, PA, USA). The bacterial inoculum was adjusted to approximately 2.5–3 × 10^4 cells/mL in Mueller–Hinton broth and incubated in a ratio of 1:1 with the test derivatives in polystyrene 96-well flat-bottom microplates. Positive growth control (without test derivatives) and negative control (without bacteria) were included. The microplates were placed in an incubator set to 37 °C for 24 h. Absorbance was measured at 620 nm at the end of the incubation period. The cut-off level for follow-up studies was defined as a minimum of 90% inhibition of growth compared to the untreated sample. Experiments were conducted once in triplicate. For selected compounds, minimum inhibitory concentration (MIC) values were determined by dose–response experiments. Experiments were performed at least twice, in triplicate per concentration tested.

[2] = system: Staphylococcus aureus ATCC 6538; experiment: microbe, parasite or virus in culture; set-up: species or system bacteria; Broth microdilution MIC in Mueller-Hinton broth, absorbance at 620 nm; settings: ATCC6538, 24 h, read-out: Observed MIC, uM (S. aureus)
From the text: as §1

[3] = system: Escherichia coli ATCC 47076; experiment: Antibacterial MIC, microdilution susceptibility test (CLSI); format: cell-based
From the text: (§2) The synthesized linezolid conjugates (3a–k, 5a–f, 7a–c, 9a–c, 11a–f, 13, and 15) were subjected for antimicrobial properties determination against Gram-positive (Staphylococcus aureus ATCC 6538, Bacillus subtilis ATCC 6633) and Gram-negative (Pseudomonas aeruginosa ATCC 15692, Escherichia coli ATCC 47076) bacteria by the standard technique.
(§3) Antibacterial properties of the synthesized compounds (3a–k, 5a–f, 7a–c, 9a–c, 11a–f, 13 and 15) were screened against Gram-positive (Staphylococcus aureus ATCC 6538, Bacillus subtilis ATCC 6633) and Gram-negative (Pseudomonas aeruginosa ATCC 15,692 and Escherichia coli ATCC 47076) bacteria utilizing the standard technique. Linezolid was used as a standard reference/drug in the current study. The tested bacterial strains were obtained from MERCIN Center, Faculty of Agriculture, Ain Shams University, Cairo, Egypt.
as §1, with “To” for “Antibacterial properties of the synthesized compounds (3a–k, 5a–f, 7a–c, 9a–c, 11a–f, 13 and 15) were screened against Gram-positive (Staphylococcus aureus ATCC 6538, Bacillus subtilis ATCC 6633) and Gram-negative (Pseudomonas aeruginosa ATCC 15,692 and Escherichia coli ATCC 47076) bacteria utilizing the standard technique. Linezolid was used as a standard reference/drug in the current study. The tested bacterial strains were obtained from MERCIN Center, Faculty of Agriculture, Ain Shams University, Cairo, Egypt. To”

[4] = system: Pseudomonas aeruginosa ATCC 15692; experiment: as above; format: cell-based
From the text: as §2, §3
as §1, with “To” for “Antibacterial properties of the synthesized compounds (3a–k, 5a–f, 7a–c, 9a–c, 11a–f, 13 and 15) were screened against Gram-positive (Staphylococcus aureus ATCC 6538, Bacillus subtilis ATCC 6633) and Gram-negative (Pseudomonas aeruginosa ATCC 15,692 and Escherichia coli ATCC 47076) bacteria utilizing the standard technique. Linezolid was used as a standard reference/drug in the current study. The tested bacterial strains were obtained from MERCIN Center, Faculty of Agriculture, Ain Shams University, Cairo, Egypt. To”

[5] = system: Bacillus subtilis ATCC 6633; experiment: as above; format: cell-based; settings: Bacillus subtilis
From the text: as §2, §3
as §1, with “To” for “Antibacterial properties of the synthesized compounds (3a–k, 5a–f, 7a–c, 9a–c, 11a–f, 13 and 15) were screened against Gram-positive (Staphylococcus aureus ATCC 6538, Bacillus subtilis ATCC 6633) and Gram-negative (Pseudomonas aeruginosa ATCC 15,692 and Escherichia coli ATCC 47076) bacteria utilizing the standard technique. Linezolid was used as a standard reference/drug in the current study. The tested bacterial strains were obtained from MERCIN Center, Faculty of Agriculture, Ain Shams University, Cairo, Egypt. To”

[6] = system: Staphylococcus aureus ATCC 6538; experiment: as above; format: cell-based; settings: Staphylococcus aureus
From the text: as §2, §3
as §1, with “To” for “Antibacterial properties of the synthesized compounds (3a–k, 5a–f, 7a–c, 9a–c, 11a–f, 13 and 15) were screened against Gram-positive (Staphylococcus aureus ATCC 6538, Bacillus subtilis ATCC 6633) and Gram-negative (Pseudomonas aeruginosa ATCC 15,692 and Escherichia coli ATCC 47076) bacteria utilizing the standard technique. Linezolid was used as a standard reference/drug in the current study. The tested bacterial strains were obtained from MERCIN Center, Faculty of Agriculture, Ain Shams University, Cairo, Egypt. To”

[7] = ATCC47076, Mueller–Hinton broth, 37 °C, 24 h, read-out: MIC, μg/mL ± SE, E. Coli (ATCC 47076)
[8] = ATCC47076, value in parentheses, read-out: MIC (μmol), E. Coli (ATCC 47076) (converted)
[9] = ATCC15692, Mueller–Hinton broth, 37 °C, 24 h, read-out: MIC, μg/mL ± SE, P. Aeruginosa (ATCC 15692)
[10] = ATCC15692, value in parentheses, read-out: MIC (μmol), P. Aeruginosa (ATCC 15692) (converted)
[11] = ATCC6633, 24 h, Mueller–Hinton broth, 37 °C, 24 h, read-out: MIC, μg/mL ± SE, B. Subtilis (ATCC 6633)
[12] = ATCC6538, 24 h, Mueller–Hinton broth, 37 °C, 24 h, read-out: MIC, μg/mL ± SE, S. Aureus (ATCC 6538)

Structure (SMILES)	MIC [1] [µM]	MIC [2] [µM]	melting point [°C]	MIC [3, 7] [µg/mL]	MIC [3, 8] [µM]	MIC [4, 9] [µg/mL]	MIC [4, 10] [µM]	MIC [5, 11] [µg/mL]	MIC [6, 12] [µg/mL]	MIC ([5]; ATCC6633, as quoted in running text, read-out: MIC against B. subtilis) [µM]	MIC ([6]; ATCC6538, as quoted in running text, read-out: MIC against S. aureus) [µM]
CC(C)(C)OC(=O)NCC(=O)NC[C@H]1CN(c2ccc(N3CCOCC3)c(F)c2)C(=O)O1 [Compound 3f, Tert-butyl (S)-(2-(((3-(3-fluoro-4-morpholinophenyl)-2-oxooxazolidin-5-yl)methyl)amino)-2-oxoethyl)carbamate]	17.7 (≈ 8 µg/mL)	70.7 (≈ 32 µg/mL)	54 to 56	32 ± 2.8	70.7	32 ± 1.6	70.7	8 ± 0.4	32 ± 1.4		
C[C@H](NC(=O)OC(C)(C)C)C(=O)NC[C@H]1CN(c2ccc(N3CCOCC3)c(F)c2)C(=O)O1 [Compound 3g, Tert-butyl ((S)-1-((((S)-3-(3-fluoro-4-morpholinophenyl)-2-oxooxazolidin-5-yl)methyl)amino)-1-oxopropan-2-yl)carbamate]	68.6 (≈ 32 µg/mL)	68.6 (≈ 32 µg/mL)	71 to 72	32 ± 2.7	68.6	32 ± 1.2	68.6	32 ± 2.4	32 ± 1.5		
CC(C)(C)OC(=O)N[C@@H](Cc1ccccc1)C(=O)NC[C@H]1CN(c2ccc(N3CCOCC3)c(F)c2)C(=O)O1 [Compound 3j, Tert-butyl ((S)-1-((((S)-3-(3-fluoro-4-morpholinophenyl)-2-oxooxazolidin-5-yl)methyl)amino)-1-oxo-3-phenylpropan-2-yl)carbamate]	59 (≈ 32 µg/mL)	118 (≈ 64 µg/mL)	69 to 71	32 ± 0.9	59	64 ± 1.8	118	32 ± 1.3	64 ± 2.5		
O=C(NC[C@H]1CN(c2ccc(N3CCOCC3)c(F)c2)C(=O)O1)c1ccccc1 [Compound 5a, (S)-N-((3-(3-Fluoro-4-morpholinophenyl)-2-oxooxazolidin-5-yl)methyl)benzamide]	2.5 (≈ 1 µg/mL)	10 (≈ 4 µg/mL)	174 to 176	32 ± 1.6	80.1	32 ± 0.8	80.1	1 ± 0.1	4 ± 0.2	2.33 to 2.5	9.34 to 10
O=C(NC[C@H]1CN(c2ccc(N3CCOCC3)c(F)c2)C(=O)O1)c1cccc([N+](=O)[O-])c1Cl [Compound 5f, (S)-2-Chloro-N-((3-(3-fluoro-4-morpholinophenyl)-2-oxooxazolidin-5-yl)methy-l)-3-nitrobenzamide]	8.35 (≈ 4 µg/mL)	16.7 (≈ 8 µg/mL)	200 to 202	32 ± 0.6	66.8	32 ± 1.4	66.8	4 ± 0.3	8 ± 0.2		
O=C(NC[C@H]1CN(c2ccc(N3CCOCC3)c(F)c2)C(=O)O1)c1cccnc1 [Compound 7b, (S)-N-((3-(3-Fluoro-4-morpholinophenyl)-2-oxooxazolidin-5-yl)methyl)nicotinamide]	5 (≈ 2 µg/mL)	20 (≈ 8 µg/mL)	182 to 184	32 ± 1	79.9	32 ± 1.2	79.9	2 ± 0.1	8 ± 0.2		
O=C(NC[C@H]1CN(c2ccc(N3CCOCC3)c(F)c2)C(=O)O1)c1cnccn1 [Compound 7c, (S)-N-((3-(3-Fluoro-4-morpholinophenyl)-2-oxooxazolidin-5-yl)methyl)pyrazine-2-carboxamide]	4.98 (≈ 2 µg/mL)	19.9 (≈ 8 µg/mL)	190 to 192	32 ± 0.7	79.7	32 ± 1.1	79.7	2 ± 0.1	8 ± 0.1		
CC(C)C[C@H](NC(=O)c1cnccn1)C(=O)NC[C@H]1CN(c2ccc(N3CCOCC3)c(F)c2)C(=O)O1 [Compound 9a, N-((S)-1-((((S)-3-(3-Fluoro-4-morpholinophenyl)-2-oxooxazolidin-5-yl)methyl)amino) -4-methyl-1-oxopentan-2-yl)pyrazine-2-carboxamide]	62.2 (≈ 32 µg/mL)	62.2 (≈ 32 µg/mL)	90 to 92	32 ± 1.6	62.2	32 ± 1.3	62.2	32 ± 2	32 ± 0.4		
CC(C)[C@H](NC(=O)c1cnccn1)C(=O)NC[C@H]1CN(c2ccc(N3CCOCC3)c(F)c2)C(=O)O1 [Compound 9b, N-((S)-1-((((S)-3-(3-Fluoro-4-morpholinophenyl)-2-oxooxazolidin-5-yl)methyl)amino) -3-methyl-1-oxobutan-2-yl)pyrazine-2-carboxamide]	63.9 (≈ 32 µg/mL)	63.9 (≈ 32 µg/mL)	94 to 96	32 ± 3.4	63.9	32 ± 2.5	63.9	32 ± 1.3	32 ± 1.7		

From article PMC8880098, “Synthesis, Antibacterial Evaluation, and Computational Studies of a Diverse Set of Linezolid Conjugates” (Pharmaceuticals, 2022)
